Assay results from patent publication US20070093493A1, “Treatment of benign prostatic hypertrophy and lower urinary tract symptoms” (LILLY ICOS LLC, priority 2005, published 2007).

Assays:
Assay type in all cases: in vivo, human
[1] = test system: men suffering from moderate to severe LUTS secondary to BPH; experiment: randomized, double-blind, placebo-controlled, parallel-group, dose-escalation study, once a day dosing: efficacy in LUTS secondary to BPH
Description: (§1) The efficacy and safety of Compound (I) administered once a day for LUTS secondary to BPH in male humans was tested. In particular, the efficacy and safety of Compound (I) dosed once a day was assessed in men suffering from moderate to severe LUTS secondary to BPH in a randomized, double-blind, placebo-controlled, parallel-group, dose-escalation study. Patients were treated with placebo for four weeks (single blind) to evaluate treatment compliance and establish baseline International Prostate Symptom Score (IPSS) and uroflowmetry values. After stratification by baseline IPSS (13-19, moderate LUTS; 20-35, severe LUTS), geographic region, and prior α-blocker therapy, 281 men were randomly assigned to two groups: (1) Compound (I) (5 mg for 6 weeks followed by dose escalation to 20 mg for 6 weeks) or (2) placebo (12 weeks). The primary efficacy end point was change in IPSS at 6 and 12 weeks. Secondary efficacy endpoints included changes in IPSS Quality of Life (QoL) index, BPH Impact Index (BII), uroflowmetry values, and a Global Assessment Question (LUTS GAQ) (Has the treatment you have been taking since your last visit improved your urinary symptoms?). Responses to Compound (I) 5 mg (6 weeks) or Compound (I) 5 mg followed by 20 mg (5/20 mg; 12 weeks total) were compared with placebo using ANCOVA (IPSS, BII, uroflowmetry values) and logistic linear regression (LUTS GAQ) models.

[2] = test system: men with LUTS/BPH who were sexually active and also had erectile dysfunction; experiment: same clinical study: erectile function (IIEF EF domain) in the subset with erectile dysfunction; conditions: for increase in International Index of Erectile Function (IIEF) EF domain score: LS Means, p<0.001
Description: The efficacy and safety of Compound (I) administered once a day for LUTS secondary to BPH in male humans was tested. In particular, the efficacy and safety of Compound (I) dosed once a day was assessed in men suffering from moderate to severe LUTS secondary to BPH in a randomized, double-blind, placebo-controlled, parallel-group, dose-escalation study.
as §1, with “Patients” for “The efficacy and safety of Compound (I) administered once a day for LUTS secondary to BPH in male humans was tested. In particular, the efficacy and safety of Compound (I) dosed once a day was assessed in men suffering from moderate to severe LUTS secondary to BPH in a randomized, double-blind, placebo-controlled, parallel-group, dose-escalation study. Patients”
At 6 weeks (5 mg) and 12 weeks (5/20 mg) Compound (I) improved change from baseline scores for IPSS, IPSS QoL, BII, and LUTS GAQ compared with placebo. Peak flow rate (Qmax) changes were similar in placebo and Compound (I) treatment groups.

[3] = test system: men suffering from moderate to severe LUTS secondary to BPH; experiment: same clinical study: safety / tolerability of once a day dosing; conditions: dosed once a day, 5 mg then 20 mg
Description: as §1

[4] = at 6 weeks (5 mg) and 12 weeks (5/20 mg), once a day, men

CN1CC(=O)N2[C@H](c3ccc4c(c3)OCO4)c3[nH]c4ccccc4c3C[C@@H]2C1=O [Compound (I), (6R,12aR)-2,3,6,7,12,12a-hexahydro-2-methyl-6-(3,4-methylenedioxyphenyl)pyrazino[2′,1′:6:1]pyrido[3,4-b]indole-1,4-dione]
LUTS GAQ compared with placebo [1, 4]: improved | change from baseline score for BII compared with placebo [1, 4]: improved | change from baseline score for IPSS QoL compared with placebo [1, 4]: improved | change from baseline score for IPSS compared with placebo [1, 4]: improved | efficacy in the treatment of LUTS secondary to BPH ([1]; dosed once a day, summary): statistically significant and clinically meaningful efficacy | Peak flow rate (Qmax) changes versus placebo ([1]; uroflowmetry, placebo and Compound (I) treatment groups): similar | increase in International Index of Erectile Function (IIEF) EF domain score ([2]; 5 mg once a day, 6 weeks, vs. 0.6 placebo): 6.0 | increase in International Index of Erectile Function (IIEF) EF domain score ([2]; 5/20 mg once a day, 12 weeks total, vs. 1.4 placebo): 7.7 | erectile function in men with both LUTS and MED ([2]; dosed once a day, summary): improved erectile function | tolerability [3]: well tolerated
